Series [1] concerns A549. The series can be described thus: Cytotoxicity assay (propidium iodide), A549. The format is cell-based. The settings on record: A549 (C1a, lung); 48 hours.
Experimental: (§1) Cells from cell lines as mentioned in the table given below were seeded at a density of 3000 cells/well in a white opaque 96-well plate. Following incubation at 37° C./5% CO2 for a period of 18-24 hours, the cells were treated with various concentrations (stock solution was prepared in DMSO and subsequent dilutions were made in media as per ATCC guidelines) of the representative compounds of present invention (refer table 3) for a period of 48 hours. At the end of treatment, the spent culture medium was discarded, the cells were washed with 1×PBS and 200 μl of 7 μg/ml propidium iodide was added to each well. The plates were frozen at −70° C. for at least 24 hours. For analysis, the plates were brought to RT, allowed to thaw and were read in PolarStar fluorimeter with the fluorescence setting. The percentage of viable cells in the non treated set of wells was considered to be 100 and the percentage viability following treatment was calculated accordingly. IC50 values were calculated from graphs plotted using these percentages.
Series [2] relates to H460. Nature of the series: Cytotoxicity assay (propidium iodide), H460. The format is cell-based. As to conditions: H460 (C1b, lung); 48 hours.
The test system of series [3] is A2780. The series can be described thus: Cytotoxicity assay (propidium iodide), A2780. As to conditions: A2780 (C3a, ovarian); 48 hours. The format is cell-based.
Experimental: as §1
The subject of series [4] is HT29. The series can be described thus: Cytotoxicity assay (propidium iodide), HT29. The series is classed as cell-based. The settings on record: HT29 (C4a, colon); 48 hours.
Experimental: as §1
Series [5] relates to MDA MB 231. The series can be described thus: Cytotoxicity assay (propidium iodide), MDA MB 231. The format is cell-based. The settings on record: MDA MB 231 (C6a, breast); 48 hours.
Experimental: as §1
The target of series [6] is STAT3. Nature of the series: STAT3 bioassay (Hela Stat3-luc, luciferase). The format is cell-based. The settings on record: Oncostatin M induction. The procedure, abridged:
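Hela Stat3-luc cells (20,000/well, 24 h) pretreated with compound 1 h, then induced with 100 ng/ml final Oncostatin M for 7-8 h at 37 °C. Luciferase luminescence after lysis; percent inhibition versus induction control, IC50 from these percentages.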

Series [7] deals with IL-6. The series can be described thus: Human monocyte assay, LPS-stimulated IL-6. The format is cell-based. As to conditions: human monocytes, 1 μg/ml LPS, 5 hours. The procedure, abridged:
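Adherent human PBMC-derived monocytes (2×10^4/well) were cultured 48 h, preincubated 30 min with compound or 0.5% DMSO, then stimulated with 1 μg/ml E. coli LPS for 5 h at 37° C. TNF-α and IL-6 in supernatants were measured by ELISA.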

Series [8] deals with PC3.

Structures are written as SMILES.

Regarding `Cc1cccc(S(=O)(=O)N(C)N=Cc2cnc3ccc(-c4cccnc4)cn23)c1` [Example 2], the 50% inhibitory concentration (IC50) – broadly, the midpoint of a concentration-inhibition curve – in series [1] is 0.01 to 5 µM; in series [2], 0.01 to 5 µM; in series [3], 0.01 to 5 µM; in series [4], greater than 5 µM; in series [5] it was 0.01 to 5 µM; in series [6], 5 to 10 µM. Further, the 50% inhibitory concentration (IC50) lay within 0.001 to 5 µM in series [7] and 0.01 to 5 µM in series [8].
On to `Cc1ccc([N+](=O)[O-])cc1S(=O)(=O)N(C)N=Cc1cnc2ccc(-c3ccc(F)nc3)cn12` [Example 83, N′-((6-(6-fluoropyridine-3-yl)imidazo[1,2-a]pyridine-3-yl)methylene)-n, 2-dimethyl-5-nitrobenzenesulfonohydrazide], for which the 50% inhibitory concentration (IC50) in series [1] was greater than 5 µM; in series [2] it was greater than 5 µM; in series [3] it was 0.01 to 5 µM; in series [4], greater than 5 µM; in series [5] it was 0.01 to 5 µM; in series [8], greater than 5 µM.

For the origin of these results see US8741932B2, “Imidazopyridine derivatives” (Piramal Enterprises Limited, priority 2009, dated 2014).
